# Like-named read-outs stand apart in the source and are kept apart here.
# How the values were obtained:
# [1] = target: T1, 5α-reductase type 1 isozyme (Rattus norvegicus, UniProt P24008); assay: Enzyme inhibition test, 5α-reductase type 1 (pH 6.6); type: biochemical
# T1 sequence (P24008 1-259): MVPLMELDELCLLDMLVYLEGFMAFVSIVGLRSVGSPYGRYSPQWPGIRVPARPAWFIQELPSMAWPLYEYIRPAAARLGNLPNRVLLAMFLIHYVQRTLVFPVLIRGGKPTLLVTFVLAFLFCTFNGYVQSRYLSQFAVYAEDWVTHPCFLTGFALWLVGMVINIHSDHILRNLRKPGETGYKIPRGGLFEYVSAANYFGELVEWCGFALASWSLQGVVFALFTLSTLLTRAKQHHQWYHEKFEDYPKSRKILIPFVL
# Experimental: (§1) Female rats were sacrificed and liver were taken within 5 min. All the following steps were performed at 0–4 °C. 1 g liver was cut into 3 mm pieces and added to 3 times volume of PBS. The tissue was homogenized and centrifuged at 10,000 g for 30 min. The supernatant was collected and centrifuged repeatedly at 100,000 for 1 h. The pellet obtained was resuspended in phosphate buffer (contained 30% glycerol, 1:3 v/v) and stored at −70 °C. The incubation mixture contained 50 µL enzyme solution, 6 µL NADPH (80 µM), 6 µL T (20 µM), and 108 µL buffer with or without test compound. The negative control contained 50 µL enzyme solution, 6 µL NADPH (80 µM) and 114 µL buffer. The incubation was carried out for 30 min at 37 °C. The fluorescence decay rate was tested in 10 min at 37 °C.
# (§2) The inhibitory activities of the synthesized compounds were then assessed towards the 5α-reductase 1 and 2 isozymes, respectively. Finasteride was used as positive control.
# [2] = target: T2, 5α-reductase type 2 isozyme (Rattus norvegicus, UniProt P31214); assay: Enzyme inhibition test, 5α-reductase type 2 (pH 5.5); type: biochemical
# T2 sequence (P31214 1-254): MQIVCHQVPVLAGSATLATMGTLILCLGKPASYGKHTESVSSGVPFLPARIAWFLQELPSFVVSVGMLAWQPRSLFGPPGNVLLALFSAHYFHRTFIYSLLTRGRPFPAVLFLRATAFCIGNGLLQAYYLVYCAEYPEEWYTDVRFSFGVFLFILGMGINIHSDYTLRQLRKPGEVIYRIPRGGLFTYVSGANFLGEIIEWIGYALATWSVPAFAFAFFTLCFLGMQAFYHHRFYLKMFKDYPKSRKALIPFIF
# Experimental: as §1, §2
# 22RV1 cells = assay: MTT anti-proliferation assay, T-stimulated 22RV1; type: cell-based, Human; details: for Effect on cell viability of T-treated 22RV1 cells: different concentrations of compound with 0.1 μM T, Figure 3
# Experimental: Human prostate carcinoma 22RV1 (CRL-2505, ATCC) and PC-3 (CRL-1435, ATCC) cells were cultured in RPMI-1640 medium (Invitrogen), supplemented with 10% (v/v) foetal calf serum (FCS) (Invitrogen), 1% (v/v), penicillin and streptomycin (Invitrogen) at 37 °C with 5% CO2 in a humidified atmosphere. Fresh medium was given every second day and on the day before the experiments were done. Cells were passaged at preconfluent densities, using a solution containing 0.05% trypsin.
# The anti-cancer activity in vitro was measured using the MTT assay. Exponentially growing cells were harvested and plated in 96-well plates at a concentration of 1 × 10^4 cells/well. After 24 h incubation at 37 °C under a humidified 5% CO2 to allow cell attachment, the cells in the wells were respectively treated with target compounds at various concentrations for 48 h. […] A solution of 3–(4,5-dimethylthizao1-2-y1)-2,5-diphenyltetrazolium bromide (MTT), was prepared at 5 mg/ml in phosphate buffered saline (PBS: 1.5 mM KH2PO4, 6.5 mM Na2HPO4, 137 mM NaCl, 2.7 mM KCl; pH 7.4). Of this solution 20 µl was added to each well. After incubation for 4 h at 37 °C in a humidified incubator with 5% CO2, the medium/MTT mixtures were removed, and the formazan crystals formed by the mitochondrial dehydrogenase activity of vital cells were dissolved in 100 µl of DMSO per well. The absorbance of the wells was read with a microplate reader at 570 nm. Effects of the drug cell viability were calculated using cell treated with DMSO as control.
# The anti-proliferative activities were firstly evaluated against 22RV1 stimulated by 0.1 µM T or not. […] Although androst[3,2-c]pyrazoleis common in anabolic steroid, luckily these derivatives shown no androgen agonistic activity. The phenethylamino substituted compounds (7d, 8d, and 9d) and piperidine substituted compounds (7b, 8b, and 9b) were more efficient than others. […] As presented in Figure 3, 0.1 µm of T was selectedas the most adequate to induce proliferation of 22RV1 cells. […] Compound 9d caused a much more significant decrease in cell viability for all concentrations than flutamide. […]
# [3] = 1 μM compound, pH 6.6, rat liver enzyme preparation, read-out: Type 1 (pH 6.6) Inh% (1 μM)
# [4] = 1 μM compound, pH 5.5, rat liver enzyme preparation, read-out: Type 2 (pH 5.5) Inh% (1μM)
# [5] = pH 6.6, read-out: Type 1 (pH 6.6) Inh% (1 μM)
# [6] = pH 5.5, read-out: Type 2 (pH 5.5) Inh% (1μM)
# [7] = pH 6.6, rat liver enzyme preparation, read-out: Type 1 (pH 6.6) IC50
Structure (SMILES),melting point,"inhibition at 1 µM [1, 3]","inhibition at 1 µM [2, 4]",other results
"CC(C)CNC(=O)[C@H]1CCC2C3CCC4=CC(=O)/C(=C\O)C[C@]4(C)C3CC[C@@]21C (stereo partly drawn) [Compound 7a, 2-hydroxymethylene-17β-(N-isobutyl-carboxamide)-androst-4-ene-3-one]",152 to 158 °C,25 ± 9.68%,24.2 ± 1.13%,–
"C[C@]12CC[C@H]3[C@@H](CCC4=CC(=O)C(=CO)C[C@@]43C)[C@@H]1CC[C@@H]2C(=O)N1CCCCC1 [Compound 7b, 2-hydroxymethylene-17β-(piperidine-1-carbonyl)-androst-4-ene-3-one]",105 to 110 °C,52.2 ± 12.3%,49.9 ± 3.08%,–
"CCN(CC)C(=O)[C@H]1CCC2C3CCC4=CC(=O)/C(=C\O)C[C@]4(C)C3CC[C@@]21C (stereo partly drawn) [Compound 7c, 2-hydroxymethylene-17β-(N,N-diethy-carboxamide)-androst-4-ene-3-one]",153 to 159 °C,27.9 ± 4.01%,24.5 ± 8.47%,–
"COc1ccc(CCNC(=O)[C@H]2CCC3C4CCC5=CC(=O)/C(=C\O)C[C@]5(C)C4CC[C@@]32C)cc1OC (stereo partly drawn) [Compound 7d, 2-hydroxymethylene-17β-(N-(3,4-dimethoxyphenethyl)-carboxamide)-androst-4-ene-3-one]",121 to 129 °C,–,–,"IC50 [1]: 580 ± 60 nM; inhibition at 1 µM [1, 5]: 66.4 ± 4.37%; inhibition at 1 µM [2, 6]: 69 ± 9.3%"
"C[C@]12CC[C@H]3[C@@H](CCC4=CC(=O)C(=CO)C[C@@]43C)[C@@H]1CC[C@@H]2C(=O)NC1CC1 [Compound 7e, 2-hydroxymethylene-17β-(N-cyclopropylamino-carbonyl)-androst-4-ene-3-one]",125 to 130 °C,54.7 ± 5.94%,45.8 ± 9.86%,–
"C=C1C[C@@]2(C)C(=CC1=O)CCC1C2CC[C@@]2(C)C1CC[C@@H]2C(=O)NCC(C)C (stereo partly drawn) [Compound 8a, 2-methylene-17β-(N-isobutyl-carboxamide)-androst-4-ene-3-one]",168 to 175 °C,31.1 ± 6.49%,19.9 ± 12.9%,–
"C=C1C[C@@]2(C)C(=CC1=O)CC[C@H]1[C@@H]3CC[C@H](C(=O)N4CCCCC4)[C@@]3(C)CC[C@@H]12 [Compound 8b, 2-methylene-17β-(piperidine-1-carbonyl)-androst-4-ene-3-one]",–,35.8 ± 9.58%,21.2 ± 1.31%,–
"C=C1C[C@@]2(C)C(=CC1=O)CCC1C2CC[C@@]2(C)C1CC[C@@H]2C(=O)N(CC)CC (stereo partly drawn) [Compound 8c, 2-methylene-17β-(N,N-diethy-carboxamide)-androst-4-ene-3-one]",98 to 105 °C,25.8 ± 4.22%,18.3 ± 4.61%,–
"C=C1C[C@@]2(C)C(=CC1=O)CCC1C2CC[C@@]2(C)C1CC[C@@H]2C(=O)NCCc1ccc(OC)c(OC)c1 (stereo partly drawn) [Compound 8d, 2-methylene-17β-(N-(3,4-dimethoxyphenethyl)-carboxamide)-androst-4-ene-3-one]",74 to 78 °C,24.8 ± 9.02%,26.1 ± 10.3%,–
"C=C1C[C@@]2(C)C(=CC1=O)CC[C@H]1[C@@H]3CC[C@H](C(=O)NC4CC4)[C@@]3(C)CC[C@@H]12 [Compound 8e, 2-methylene-17β-(N-cyclopropylamino-carbonyl)-androst-4-ene-3-one]",135 to 142 °C,34.1 ± 10.1%,20.9 ± 10.1%,–
"CC(C)CNC(=O)[C@H]1CCC2C3CCC4=Cc5n[nH]cc5C[C@]4(C)C3CC[C@@]21C (stereo partly drawn) [Compound 9a, 17β-(N-isobutyl-carboxamide)-androst[3,2-c]pyrazole-4-ene]",–,53.1 ± 9.71%,48.7 ± 3.08%,–
"C[C@]12Cc3c[nH]nc3C=C1CCC1C2CC[C@@]2(C)C1CC[C@@H]2C(=O)N1CCCCC1 (stereo partly drawn) [Compound 9b, 17β-(Piperidine-1-carbonyl)-androst[3,2-c]pyrazole-4-ene]",–,59.2 ± 2.28%,49.6 ± 5.75%,"IC50 [1, 7]: 630 ± 140 nM"
"CCN(CC)C(=O)[C@H]1CCC2C3CCC4=Cc5n[nH]cc5C[C@]4(C)C3CC[C@@]21C (stereo partly drawn) [Compound 9c, 17β-(N,N-diethy-carboxamide)-androst[3,2-c]pyrazole-4-ene]",111 to 118 °C,68 ± 12%,63.6 ± 12.5%,"IC50 [1, 7]: 520 ± 60 nM"
"COc1ccc(CCNC(=O)[C@H]2CCC3C4CCC5=Cc6n[nH]cc6C[C@]5(C)C4CC[C@@]32C)cc1OC (stereo partly drawn) [Compound 9d, 17β-(N-(3,4-dimethoxyphenethyl)-carboxamide)-androst[3,2-c]pyrazole-4-ene]",–,–,–,"IC50 (22RV1 cells; Homo sapiens, 22Rv1, 48 h, read-out: IC50 anti-proliferative activity against 22RV1, T-stimulated group): 8850 nM; Effect on cell viability of T-treated 22RV1 cells (22RV1 cells): inhibited cell proliferation in a dose-dependent manner; IC50 [1]: 90 ± 20 nM; inhibition at 1 µM [1, 5]: 80.1 ± 6.73%; inhibition at 1 µM [2, 6]: 71.9 ± 3.4%"
"C[C@]12Cc3c[nH]nc3C=C1CCC1C2CC[C@@]2(C)C1CC[C@@H]2C(=O)NC1CC1 (stereo partly drawn) [Compound 9e, 17β-(N-cyclopropylamino-carbonyl)-androst[3,2-c]pyrazole-4-ene]",–,–,–,"IC50 [1]: 230 ± 90 nM; inhibition at 1 µM [1, 5]: 70.8 ± 9.74%; inhibition at 1 µM [2, 6]: 79.4 ± 2.47%"
"CC(C)(C)NC(=O)[C@H]1CC[C@H]2[C@@H]3CC[C@H]4NC(=O)C=C[C@]4(C)[C@H]3CC[C@]12C [Finasteride, finasteride, reference compound]",–,73.7 ± 4.22%,–,"inhibition at 1 µM [2, 6]: 70 ± 4.12%"
"CC(C)C(=O)Nc1ccc([N+](=O)[O-])c(C(F)(F)F)c1 [flutamide, reference compound]",–,–,–,Effect on cell viability of T-treated 22RV1 cells (22RV1 cells): inhibited cell proliferation in a dose-dependent manner

# From PMC6735293, “Design, synthesis, and biological evaluation of novel androst-17β-amide structurally related compounds as dual 5α-reductase inhibitors and androgen receptor antagonists” (Journal of Enzyme Inhibition and Medicinal Chemistry, 2019)
